Results on 1 compound are retold here after patent US11878013B2, “Isoquinoline derivative, preparing method thereof, and pharmaceutical composition for preventing or treating autophagy related diseases containing the same as an active ingredient” (Korea Research Institute of Chemical Technology, priority 2021, dated 2024).

One series has as its system zebrafish. Put plainly: Fatty liver inhibitory effect in tamoxifen-treated zebrafish juvenile fish (LipidGreen2 staining). The format is in vivo. The procedure: In order to evaluate the inhibitory efficacy of the novel isoquinoline derivative of the present invention on fatty liver, an experiment was performed as follows using LipidGreen2 staining reagent capable of staining lipid droplets.
Particularly, the zebrafish used in this Experimental Example were juvenile fish 5 days after fertilization. Healthy juvenile fish were placed in a 24-well plate (10/well), and 1 ml of egg water was added to each well of the plate. As a negative control that could not regulate fatty liver, DMSO diluted at 0.4% was exposed to juvenile fish, and tamoxifen (Sigma-Aldrich, T5648) diluted at 5 μM was exposed to juvenile fish to control […] fatty liver. In order to investigate the fatty liver inhibitory efficacy of the compound of Example 1 of the present invention, the compound (0.5 μM, 1 μM and 5 μM) was mixed with 5 μM tamoxifen and exposed to juvenile fish (final volume of each well: 2 ml). The 24-well plate containing the compound was wrapped in foil to block light, and then incubated in a 28° C. incubator for 22 hours. The plate was washed with egg water 3 times for 5 minutes to remove the compound from each well. For fat-specific staining, LipidGreen2 diluted at 5 μM was exposed to juvenile fish for 30 minutes, and then washed 3 times with egg water for 5 minutes. To evaluate the fatty liver of zebrafish juvenile fish, the developing embryo was anesthetized with Tricaine (4 g/L), and then photographed on 3% methyl cellulose. As the equipment for photographing the developing embryo, a LEICA MZ10F fluorescence microscope, a LEICA DFC425 camera, and Leica Application Suite software (v4.5) were used. For the fluorescence wavelength, a GFP Plants filter set (Excitation 470/40 nm, Emission 525/50 nm) was used. To quantify the liver area and the degree of fat staining of juvenile fish on the image, the area and the fluorescence intensity of the liver part of each image were quantified using ImageJ 1.50i software (National Institutes of Health, USA) and converted into heatmap images.

For the next series, the system named is artificial skin tissue. Put plainly: Skin toxicity test on artificial skin (MTT). It is filed as cell-based. As for the experimental part: In order to evaluate the skin toxicity that may be induced upon skin contact of the compound of Example 1 of the present invention, the following experiment was performed using the artificial skin prepared with a structure similar to the skin of a living body.
Particularly, the experiment was performed according to OECD Guideline for the Testing of Chemicals No. 439, OECD (2010) and the method recommended by the manufacturer (Tegoscience).
First, the artificial skin cultured in agarose medium was transferred to a 12-well cell culture plate, to which culture medium was added, followed by culture in a humidified 37° C. 5% CO2 incubator for one day. The medium on the artificial skin culture surface was eliminated, and 90 μl of the compound of Example 1 of the present invention diluted with PBS was evenly applied to the skin surface, followed by incubation at room temperature for 15 minutes. The cell surface was washed twice with 10 ml of PBS, and a fresh culture medium was added, followed by incubation in a humidified 37° C. 5% CO2 incubator for 42 hours. In order to measure the viability of the skin, the artificial skin was transferred to a 12-well plate containing 2 ml of MTT solution (0.3 mg/ml), followed by culture for 3 hours. The stained artificial skin tissue was taken and transferred to a tube containing 500 μl of 0.04 N-isopropanol, and then incubated with shaking for 4 hours to decolorize. The solution was centrifuged at 13,000 rpm for 5 minutes, 100 μl of the supernatant was transferred to each well of a 96-well plate, and absorbance was measured at 570 nm.

The next series addresses T1, hERG channel protein (Homo sapiens, UniProt Q12809).
T1 construct: expressed in transfected cells; host or cells: HEK-293
Put plainly: hERG ligand binding test (fluorescence polarization). The following applies: at 10 μM. As for the experimental part:
In order to evaluate the possibility of inducing cardiotoxicity of the compound of Example 1 of the present invention in vivo, the inhibitory potential to the hERG (human ether-a-go-go related gene) K^+ channel protein, known as a main cause of arrhythmias, was tested.
First, a ligand binding test was performed to evaluate the binding force of the compound of Example 1 binding to the hERG channel protein in vitro. A biological membrane containing the hERG channel protein was aliquoted in a 384-black well plate (10 μl/well) at room temperature, and DMSO, E-4031 (positive control), and the compound of Example 1 prepared to be 4 times the final test concentration were added thereto (5 μl/well). A tracer material with a fluorescent material attached to astemizole, known as a selective binding substance to the hERG channel protein, was dispensed into a mixture of the two solutions (5 μl/well), and then incubated for 2 hours at room temperature where light was blocked. In order to excite the tracer material included in the reaction solution, the light of 530 nm was irradiated and the light of 585 nm returned back was measured by the polarization method. […] The binding force of the test material to the hERG protein was expressed as the inhibition rate (%) compared to the group treated with DMSO.
A general note: The hERG channel carries a current that helps repolarise heart muscle cells.

T1 sequence (Q12809 whole entry): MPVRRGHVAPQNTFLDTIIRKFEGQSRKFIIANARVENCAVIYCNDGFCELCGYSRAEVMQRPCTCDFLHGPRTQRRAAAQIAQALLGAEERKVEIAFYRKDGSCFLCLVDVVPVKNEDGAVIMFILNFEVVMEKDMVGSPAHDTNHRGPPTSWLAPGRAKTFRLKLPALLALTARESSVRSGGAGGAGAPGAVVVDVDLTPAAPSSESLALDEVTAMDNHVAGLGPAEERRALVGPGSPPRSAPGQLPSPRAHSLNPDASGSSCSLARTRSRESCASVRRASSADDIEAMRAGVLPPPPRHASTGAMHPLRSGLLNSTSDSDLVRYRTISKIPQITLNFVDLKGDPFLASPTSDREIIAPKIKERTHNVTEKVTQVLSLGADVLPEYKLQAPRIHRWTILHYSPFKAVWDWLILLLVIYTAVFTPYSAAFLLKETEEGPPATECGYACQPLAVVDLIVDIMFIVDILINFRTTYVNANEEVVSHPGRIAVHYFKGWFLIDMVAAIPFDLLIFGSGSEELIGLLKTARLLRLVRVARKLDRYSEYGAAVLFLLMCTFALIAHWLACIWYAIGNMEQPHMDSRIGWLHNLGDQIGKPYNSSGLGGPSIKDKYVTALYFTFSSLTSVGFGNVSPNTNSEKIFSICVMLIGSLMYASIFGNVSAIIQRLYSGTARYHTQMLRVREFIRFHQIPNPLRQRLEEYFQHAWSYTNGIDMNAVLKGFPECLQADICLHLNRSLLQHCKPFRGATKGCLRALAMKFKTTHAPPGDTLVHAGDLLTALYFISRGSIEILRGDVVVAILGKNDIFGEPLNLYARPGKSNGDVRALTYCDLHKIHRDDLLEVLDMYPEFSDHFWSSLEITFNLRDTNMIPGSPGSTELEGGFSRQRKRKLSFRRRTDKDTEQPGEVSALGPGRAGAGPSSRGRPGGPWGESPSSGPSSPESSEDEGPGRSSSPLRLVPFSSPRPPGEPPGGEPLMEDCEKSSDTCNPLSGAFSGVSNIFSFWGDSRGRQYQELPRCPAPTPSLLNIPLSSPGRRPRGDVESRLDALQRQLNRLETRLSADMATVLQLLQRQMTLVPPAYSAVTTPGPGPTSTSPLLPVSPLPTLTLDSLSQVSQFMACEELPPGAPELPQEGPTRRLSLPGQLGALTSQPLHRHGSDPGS

Consider `[O-][S+](c1ccc(F)cc1)c1nccc2ccccc12` (stereo not drawn) [Example 1, 1-((4-Fluorophenyl)Sulfinyl)Isoquinoline], for which the “fatty liver (LipidGreen2 fat staining)” value with zebrafish (0.5, 1 and 5 μM mixed with 5 μM tamoxifen, 22 hours, juvenile fish 5 days after fertilization) is given as “restored to the normal level”. Also, the liver area entry with zebrafish (compound mixed with 5 μM tamoxifen, 22 hours (FIG. 8 top)) is recorded as “maintained at the liver area level of normal juvenile fish”. Further, the “fluorescence intensity of liver (LipidGreen2)” value in the series with zebrafish (compound mixed with 5 μM tamoxifen, compared to tamoxifen group (FIG. 8 bottom)) is “decreased to the normal level”. Besides, the “survival rate of artificial skin” value is given as “slight decrease of the survival rate” in the series on artificial skin tissue (50 μM, the maximum concentration) and “no significant decrease of the survival rate” with artificial skin tissue (up to 20 μM). Also, the “inhibition of the binding of the hERG channel protein” value at hERG channel protein is “about 10%”.
